Test results taken from the supplement of paper PMC10307832.

Key:
Experiment in all cases: relative viability (nuclei count vs DMSO), 5 days (fraction); higher = more cells survive
[1] = compound: CC1=CC(=CC=C1)NC2=NC(=CS2)C3=CC=NC=C3 + CC1(C)CCC(c2ccc(Cl)cc2)=C(CN2CCN(c3ccc(C(=O)NS(=O)(=O)c4ccc(N[C@H](CCN5CCOCC5)CSc5ccccc5)c(S(=O)(=O)C(F)(F)F)c4)cc3)CC2)C1 [Navitoclax] (partner 0.5 µM)
How it was run: (§1)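 Lung cancer cell lines were seeded in 1536-well plates and dosed by pin tool the next day, with either a single drug or a fixed anchor-drug dose combined with five library-drug doses (not always all listed) spaced in √10 steps. Five days later, one step fixed the cells and stained their nuclei (final 0.05% Triton X-100, 1% formaldehyde, 1 ug/ml Hoechst), and nuclei were counted on 4× images. Relative viability is the nuclei count in treated wells divided by the count in vehicle wells, and each value is the median of duplicate plates.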

[2] = compound: CC1=CC(=CC=C1)NC2=NC(=CS2)C3=CC=NC=C3 + N=C(N)NC(=N)NCCc1ccccc1 [Phenformin] (partner 250 µM)
How it was run: as §1

Masitinib + Luminespib = compound: Cc1ccc(NC(=O)c2ccc(CN3CCN(C)CC3)cc2)cc1Nc1nc(-c2cccnc2)cs1 [Masitinib] + CCNC(=O)c1noc(-c2cc(C(C)C)c(O)cc2O)c1-c1ccc(CN2CCOCC2)cc1 [Luminespib] (partner 0.01 µM)
How it was run: as §1

Masitinib + Alpelisib = compound: Cc1ccc(NC(=O)c2ccc(CN3CCN(C)CC3)cc2)cc1Nc1nc(-c2cccnc2)cs1 [Masitinib] + Cc1nc(NC(=O)N2CCC[C@H]2C(N)=O)sc1-c1ccnc(C(C)(C)C(F)(F)F)c1 [Alpelisib] (partner 2 µM)
How it was run: as §1

| Cell Line | relative viability ([1]; first compound 0.08 µM) | relative viability ([1]; first compound 0.253 µM) | relative viability ([1]; first compound 0.8 µM) | relative viability ([1]; first compound 2.53 µM) | relative viability ([1]; first compound 8 µM) | relative viability ([2]; first compound 0.08 µM) | relative viability ([2]; first compound 0.253 µM) | relative viability ([2]; first compound 0.8 µM) | relative viability ([2]; first compound 2.53 µM) | relative viability ([2]; first compound 8 µM) | relative viability (Masitinib + Luminespib; first compound 0.01 µM) | relative viability (Masitinib + Luminespib; first compound 0.03162 µM) | relative viability (Masitinib + Luminespib; first compound 0.1 µM) | relative viability (Masitinib + Luminespib; first compound 0.3162 µM) | relative viability (Masitinib + Luminespib; first compound 1 µM) | relative viability (Masitinib + Alpelisib; first compound 0.01 µM) | relative viability (Masitinib + Alpelisib; first compound 0.03162 µM) | relative viability (Masitinib + Alpelisib; first compound 0.1 µM) | relative viability (Masitinib + Alpelisib; first compound 0.3162 µM) | relative viability (Masitinib + Alpelisib; first compound 1 µM) |
| --- | --- | --- | --- | --- | --- | --- | --- | --- | --- | --- | --- | --- | --- | --- | --- | --- | --- | --- | --- | --- |
| LXF-289 | 0.944 | 0.921 | 0.939 | 0.908 | 0.822 | 0.494 | 0.522 | 0.514 | 0.487 | 0.487 | 0.581 | 0.796 | 0.775 | 0.746 | 0.541 | 0.886 | 1.01 | 1.03 | 1 | 1.02 |
| NCI-H23 | 0.822 | 0.832 | 1 | 0.831 | 0.999 | 0.787 | 0.711 | 0.717 | 0.82 | 0.779 |  | 0.253 | 0.221 | 0.22 | 0.206 | 0.639 | 0.49 | 0.659 | 0.579 | 0.669 |
| NCI-H322M | 1.19 | 1.12 | 1.19 | 1.29 | 1.12 | 0.63 | 0.726 | 0.788 | 0.854 | 0.797 | 0.875 | 0.924 | 0.878 | 0.876 | 0.812 | 0.782 | 0.778 | 0.932 | 0.763 | 0.793 |
| NCI-H441 | 0.327 | 0.42 | 0.673 | 0.64 | 0.777 | 0.8 | 0.782 | 0.892 | 0.823 | 0.78 | 0.288 | 0.402 | 0.349 | 0.407 | 0.318 | 0.675 | 0.822 | 0.873 | 0.703 | 0.653 |
| NCI-H460 | 1.13 | 1.08 | 1.08 | 1.13 | 1 | 0.478 | 0.499 | 0.511 | 0.479 | 0.438 | 0.0454 | 0.0362 | 0.0338 | 0.0453 | 0.0276 | 0.479 | 0.522 | 0.521 | 0.429 | 0.471 |
| NCI-H520 | 1.04 | 1.09 | 1.15 | 1.12 | 1.15 | 0.514 | 0.538 | 0.651 | 0.308 | 0.559 | 0.223 | 0.24 | 0.24 | 0.217 | 0.2 | 0.914 |  | 0.966 | 0.826 | 1.02 |
| NCI-H596 | 0.935 | 0.943 | 0.725 | 0.942 | 0.643 | 0.727 | 0.789 | 0.733 | 0.68 | 0.669 | 0.936 | 1.03 | 1.11 | 0.53 | 1.02 | 0.341 | 0.462 | 0.625 | 0.397 | 0.435 |
| NCI-H647 | 0.799 | 0.887 | 0.938 | 1.1 | 0.942 | 0.413 | 0.489 | 0.5 | 0.534 | 0.515 | 0.223 | 0.141 | 0.13 | 0.195 | 0.259 | 1.08 | 1.26 | 1.19 | 1.28 | 1.1 |
| NCI-H727 | 0.458 | 0.372 | 0.383 | 0.345 | 0.269 |  | 0.376 | 0.586 | 0.477 | 0.4 | 0.494 | 0.324 | 0.831 | 0.341 | 0.416 | 0.652 | 0.657 | 0.517 | 0.603 | 0.74 |
| NCI-H838 | 0.954 | 1.09 | 1.04 | 1.09 | 0.924 | 0.466 | 0.521 | 0.537 | 0.508 | 0.51 | 0.314 | 0.309 | 0.245 | 0.241 | 0.263 | 0.912 | 0.865 | 0.992 | 0.769 | 0.957 |
| NCI-H1355 | 0.783 | 0.69 | 0.591 | 0.555 | 0.577 | 0.343 | 0.376 | 0.391 | 0.429 | 0.362 | 0.643 | 0.564 | 0.766 | 0.623 | 0.738 | 0.857 | 0.707 | 0.938 | 0.668 | 0.731 |
| NCI-H1395 | 0.984 | 1.1 | 1.04 | 0.971 | 0.993 | 0.402 | 0.422 | 0.46 | 0.367 | 0.407 | 0.626 | 0.682 | 0.864 | 0.506 | 0.611 | 1.12 | 1.01 | 1.1 | 1.16 | 1.09 |
| NCI-H1437 | 1.04 | 1.06 | 1.04 | 1.13 | 0.96 | 0.253 | 0.25 | 0.309 | 0.253 | 0.246 | 1.15 | 1.19 | 1.16 | 1.18 | 1.14 | 0.918 | 0.979 | 1.01 | 1.08 | 0.962 |
| NCI-H1651 | 0.894 | 1.2 | 0.948 | 1.05 | 0.899 | 0.346 | 0.318 | 0.34 | 0.33 | 0.316 | 0.823 | 1.23 | 0.822 | 0.75 | 0.769 | 0.841 | 1.01 | 0.99 | 0.947 | 1 |
| NCI-H1666 | 0.82 | 0.818 | 0.535 | 0.578 | 0.417 | 0.526 | 0.489 | 0.547 | 0.513 | 0.451 |  | 1.05 | 1.1 | 1.03 | 1.01 | 0.92 | 1.05 | 0.943 | 0.706 | 0.99 |
| NCI-H1734 | 0.835 | 0.834 | 0.827 | 0.869 | 0.698 | 0.401 | 0.353 | 0.399 | 0.456 | 0.38 | 0.194 | 0.195 | 0.188 | 0.187 | 0.172 | 0.616 | 0.715 | 0.764 | 0.383 | 0.658 |
